Patent US11999716B2, “WDR5 inhibitors and modulators” (priority 2018, dated 2024)
Read-outs that look alike come from different tables or passages of the source.

Tested on: MV4:11 human cancer cell lines
Assay: Cellular viability / anti-proliferative activity, CellTiter-Glo, 5 day protocol
Type: cell-based
Conditions: read-out: GI50 on cellular proliferation of MV4:11 human cancer cell lines
Procedure: Cellular Viability of Human Tumor Cell Lines
Anti proliferative activity using MLL-harboring cell lines. […] Viability assays are performed by dispensing 200 cells at 7200 cells/mL into each well of an opaque 384-well plate and adding compounds at the indicated concentrations in a final volume of 32 μL and a final concentration of DMSO of 0.3% for all samples. A certain range of compound concentrations is made through a series of 2-fold dilutions starting 30 μM at the highest, total 22 dilutions. After a set incubation period, 5 day protocol, the viability of cells in each well is assessed using the CellTiter-Glo assay (Promega), read on a 96 Microplane Luminometer (Cytation 3, BioTek). Serial dilutions of each cell type are performed in all assays to generate standard curves and the final densities of cells are determined within the dynamic range of the instrument. GI50 values are calculated based on XLfit software (IDBS, Guildford, UK) with Sigmoidal Dose-Response Model. Each compound is tested in minimum of two replicates. Data are expressed as mean.

[1] = Homo sapiens, MV4-11, 120 h, MV4:11 cells, 5 day incubation, CellTiter-Glo, mean of minimum two replicates

GI50 [1] [µM] | Structure (SMILES) | further results
> 0.938 | COc1cc(CN2CCc3c(OCC4CC4)cc(Cn4ccnc4C4CC4)cc3C2=O)cc(OC)c1 [Example 19, 7-((2-Cyclopropyl-1H-imidazol-1-yl)methyl)-5-(cyclopropylmethoxy)-2-(3,5-dimethoxybenzyl)-3,4-dihydroisoquinolin-1(2H)-one] | 
0.88 | COc1ccnc(CN2CCc3c(cc(Cn4ccn(C)c4=N)cc3C3CC3)C2=O)c1 [Example 54, 5-Cyclopropyl-7-((2-imino-3-methyl-2,3-dihydro-1H-imidazol-1-yl)methyl)-2-((4-methoxypyridin-2-yl)methyl)-3,4-dihydroisoquinolin-1(2H)-one] | 
0.73 | Cc1nnc(CN2CCc3c(cc(Cn4ccnc4C)cc3-c3cn(C)nc3C(F)(F)F)C2=O)o1 [Example 188, 2-((5-Methyl-1,3,4-oxadiazol-2-yl)methyl)-7-((2-methyl-1H-imidazol-1-yl)methyl)-5-(1-methyl-3-(trifluoromethyl)-1H-pyrazol-4-yl)-3,4-dihydroisoquinolin-1(2H)-one] | 
1.34 | CCn1cc(-c2cc(Cc3nccn3C)cc3c2CCN([C@@H](C)c2cc(OC)ccn2)C3=O)c(C(F)(F)F)n1 [Example 254, (S)-5-(1-Ethyl-3-(trifluoromethyl)-1H-pyrazol-4-yl)-2-(1-(4-methoxypyridin-2-yl)ethyl)-7-((1-methyl-1H-imidazol-2-yl)methyl)-3,4-dihydroisoquinolin-1(2H)-one] | 
0.449 | COc1ccnc(CN2CCc3c(cc(CN4CCN(C5CC5)C4=N)cc3-c3cn(C)nc3C)C2=O)c1 [Example 46, 7-((3-Cyclopropyl-2-iminoimidazolidin-1-yl)methyl)-5-(1,3-dimethyl-1H-pyrazol-4-yl)-2-((4-methoxypyridin-2-yl)methyl)-3,4-dihydroisoquinolin-1(2H)-one] | 
0.329 | Cc1nnc(CN2CCc3c(cc(Cn4ccnc4C)cc3-c3cn(C)nc3C(F)(F)F)C2=O)s1 [Example 174, 2-((5-Methyl-1,3,4-thiadiazol-2-yl)methyl)-7-((2-methyl-1H-imidazol-1-yl)methyl)-5-(1-methyl-3-(trifluoromethyl)-1H-pyrazol-4-yl)-3,4-dihydroisoquinolin-1(2H)-one] | 
< 0.05 | COc1cc(CN2CCc3c(cc(Cn4ccnc4C)cc3-c3cn(C)nc3C(F)(F)F)C2=O)cc(OC)c1 [Example 10, 2-(3,5-Dimethoxybenzyl)-7-((2-methyl-1H-imidazol-1-yl)methyl)-5-(1-methyl-3-(trifluoromethyl)-1H-pyrazol-4-yl)-3,4-dihydroisoquinolin-1(2H)-one] | 
> 0.938 | COc1ccnc(CN2Cc3c(cc(Cn4ccn(C)c4=N)cc3-c3cccnc3C)C2=O)c1 [Example 139, 6-((2-Imino-3-methyl-2,3-dihydro-1H-imidazol-1-yl)methyl)-2-((4-methoxypyridin-2-yl)methyl)-4-(2-methylpyridin-3-yl)isoindolin-1-one] | 
 | CCn1cc(-c2cc(Cc3cnc[nH]3)cc3c2CCN([C@@H](C)c2cc(OC)ccn2)C3=O)c(C(F)(F)F)n1 [Example 250, (S)-7-((1H-Imidazol-5-yl)methyl)-5-(1-ethyl-3-(trifluoromethyl)-1H-pyrazol-4-yl)-2-(1-(4-methoxypyridin-2-yl)ethyl)-3,4-dihydroisoquinolin-1(2H)-one] | GI50 (Homo sapiens, MV4-11, 120 h): < 0.05 µM
> 0.938 | CCn1cc(-c2cc(Cn3ccn(C)c3=N)cc3c2CCN(Cc2cc(C)nn2C)C3=O)c(C(F)(F)F)n1 [Example 74] | 
0.251 | Cc1cc(CN2CCc3c(cc(Cn4ccnc4C)cc3-c3cn(C)nc3C(F)(F)F)C2=O)ccn1 [Example 208, 7-((2-Methyl-1H-imidazol-1-yl)methyl)-5-(1-methyl-3-(trifluoromethyl)-1H-pyrazol-4-yl)-2-((2-methylpyridin-4-yl)methyl)-3,4-dihydroisoquinolin-1(2H)-one] | 
0.05 | CCn1cc(-c2cc(Cn3ccn(C)c3=N)cc3c2CCN(Cc2cc(OC)ccn2)C3=O)c(C(F)(F)F)n1 [Example 57, 5-(1-Ethyl-3-(trifluoromethyl)-1H-pyrazol-4-yl)-7-((2-imino-3-methyl-2,3-dihydro-1H-imidazol-1-yl)methyl)-2-((4-methoxypyridin-2-yl)methyl)-3,4-dihydroisoquinolin-1(2H)-one] | 
< 0.05 | Cc1cc([C@H](C)N2CCc3c(cc(Cn4ccn(C)c4=N)cc3-c3cn(C)nc3C)C2=O)ccc1F [Example 143, (S)-5-(1,3-Dimethyl-1H-pyrazol-4-yl)-2-(1-(4-fluoro-3-methylphenyl)ethyl)-7-((2-imino-3-methyl-2,3-dihydro-1H-imidazol-1-yl)methyl)-3,4-dihydroisoquinolin-1(2H)-one] | 
< 0.05 | CC[C@@H](c1cncc(C)c1)N1CCc2c(cc(Cn3ccnc3C)cc2-c2cn(C)nc2C(F)(F)F)C1=O [Example 199, (S)-7-((2-Methyl-1H-imidazol-1-yl)methyl)-5-(1-methyl-3-(trifluoromethyl)-1H-pyrazol-4-yl)-2-(1-(5-methylpyridin-3-yl)propyl)-3,4-dihydroisoquinolin-1(2H)-one] | 
0.212 | CCn1cc(-c2cc(Cn3ccoc3=N)cc3c2CCN(Cc2cn(C)nc2C)C3=O)c(C(F)(F)F)n1 [Example 97, 2-((1,3-Dimethyl-1H-pyrazol-4-yl)methyl)-5-(1-ethyl-3-(trifluoromethyl)-1H-pyrazol-4-yl)-7-((2-iminooxazol-3(2H)-yl)methyl)-3,4-dihydroisoquinolin-1(2H)-one] | 
< 0.05 | Cc1cc([C@H](C)N2CCc3c(cc(Cn4ccn(C)c4=N)cc3-c3cn(C)nc3C(F)(F)F)C2=O)ccc1F [Example 79, (S)-2-(1-(4-Fluoro-3-methylphenyl)ethyl)-7-((2-imino-3-methyl-2,3-dihydro-1H-imidazol-1-yl)methyl)-5-(1-methyl-3-(trifluoromethyl)-1H-pyrazol-4-yl)-3,4-dihydroisoquinolin-1(2H)-one] | 
< 0.05 | Cc1cc(CN2CCc3c(cc(Cn4ccn(C)c4=N)cc3-c3ccc(F)cc3C)C2=O)ccc1F [Example 31, 5-(4-Fluoro-2-methylphenyl)-2-(4-fluoro-3-methylbenzyl)-7-((2-imino-3-methyl-2,3-dihydro-1H-imidazol-1-yl)methyl)-3,4-dihydroisoquinolin-1(2H)-one] | 
0.197 | CCn1cc(-c2cc(CN3CCOC3=N)cc3c2CCN(Cc2cc(C)nn2C)C3=O)c(C(F)(F)F)n1 [Example 95, 2-((1,3-Dimethyl-1H-pyrazol-5-yl)methyl)-5-(1-ethyl-3-(trifluoromethyl)-1H-pyrazol-4-yl)-7-((2-iminooxazolidin-3-yl)methyl)-3,4-dihydroisoquinolin-1(2H)-one] | 
 | Cc1cc([C@H](C)N2CCc3c(cc(Cn4ccnc4)cc3-c3cn(C)nc3C(F)(F)F)C2=O)ncc1F [Example 201, (S)-7-((1H-imidazol-1-yl)methyl)-2-(1-(5-fluoro-4-methylpyridin-2-yl)ethyl)-5-(1-methyl-3-(trifluoromethyl)-1H-pyrazol-4-yl)-3,4-dihydroisoquinolin-1(2H)-one] | GI50 (MV4:11 cells, 5 day incubation, CellTiter-Glo, mean of minimum two replicates): < 0.05 µM
> 0.938 | COc1cc(CN2CCc3cc(F)c(Cn4ccn(C)c4=N)cc3C2=O)cc(OC)c1 [Example 25, 2-(3,5-Dimethoxybenzyl)-6-fluoro-7-((2-imino-3-methyl-2,3-dihydro-1H-imidazol-1-yl)methyl)-3,4-dihydroisoquinolin-1(2H)-one] | 
0.944 | CCn1cc(-c2cc(Cn3ccn(C)c3=N)cc3c2CN(Cc2cc(OC)ccn2)C3=O)c(C(F)(F)F)n1 [Example 137, 4-(1-Ethyl-3-(trifluoromethyl)-1H-pyrazol-4-yl)-6-((2-imino-3-methyl-2,3-dihydro-1H-imidazol-1-yl)methyl)-2-((4-methoxypyridin-2-yl)methyl)isoindolin-1-one] | 
0.16 | Cc1ccnc(CN2CCc3c(cc(CN4CCCC4=N)cc3-c3cn(C)nc3C(F)(F)F)C2=O)c1 [Example 112, 7-((2-Iminopyrrolidin-1-yl)methyl)-5-(1-methyl-3-(trifluoromethyl)-1H-pyrazol-4-yl)-2-((4-methylpyridin-2-yl)methyl)-3,4-dihydroisoquinolin-1(2H)-one] | 
> 0.938 | COc1cc(CN2CCc3c(cc(Cn4ccn(C)c4=N)cc3-c3nc(C)cn3C)C2=O)cc(OC)c1 [Example 153, 2-(3,5-Dimethoxybenzyl)-5-(1,4-dimethyl-1H-imidazol-2-yl)-7-((2-imino-3-methyl-2,3-dihydro-1H-imidazol-1-yl)methyl)-3,4-dihydroisoquinolin-1(2H)-one] | 
3.02 | Cc1nccn1Cc1cc2c(c(-c3cn(C)nc3C(F)(F)F)c1)CCN(CC1CCCOC1)C2=O (centres unmarked) [Example 167, 7-((2-Methyl-1H-imidazol-1-yl)methyl)-5-(1-methyl-3-(trifluoromethyl)-1H-pyrazol-4-yl)-2-((tetrahydro-2H-pyran-3-yl)methyl)-3,4-dihydroisoquinolin-1(2H)-one] | 
0.155 | COc1cc(CN2CCc3c(cc(Cn4ccoc4=N)cc3-c3ccc(F)cc3C)C2=O)cc(OC)c1 [Example 81, 2-(3,5-Dimethoxybenzyl)-5-(4-fluoro-2-methylphenyl)-7-((2-iminooxazol-3(2H)-yl)methyl)-3,4-dihydroisoquinolin-1(2H)-one] | 
0.207 | CCn1cc(-c2cc(CN3CCOC3=N)cc3c2CCN(Cc2cn(C)nc2C)C3=O)c(C(F)(F)F)n1 [Example 98, 2-((1,3-Dimethyl-1H-pyrazol-4-yl)methyl)-5-(1-ethyl-3-(trifluoromethyl)-1H-pyrazol-4-yl)-7-((2-iminooxazolidin-3-yl)methyl)-3,4-dihydroisoquinolin-1(2H)-one] | 
